SMILES strings stand for the structures.

human SPR, sequence (P35270 whole entry): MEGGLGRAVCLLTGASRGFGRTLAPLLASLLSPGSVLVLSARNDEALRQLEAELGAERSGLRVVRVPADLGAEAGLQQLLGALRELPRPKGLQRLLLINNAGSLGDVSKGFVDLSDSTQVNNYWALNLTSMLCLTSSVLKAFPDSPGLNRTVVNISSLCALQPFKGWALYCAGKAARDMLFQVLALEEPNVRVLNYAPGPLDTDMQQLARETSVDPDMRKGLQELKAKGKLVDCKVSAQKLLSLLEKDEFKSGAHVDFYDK

The first assay addresses human SPR (Homo sapiens (Human), UniProt P35270). In words: Evaluation Example 2: Measurement of human SPR inhibitory activity (seven concentrations, sepiapterin absorbance at 420 nm). In kind it is biochemical. The note with it: Evaluation Example 2, seven concentrations 0.14 nM to 100 nM, 240 minutes at room temperature, read-out: IC50. The procedure, abridged: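 His-tagged full-length human SPR (1-261) was expressed in E. coli and the tag removed. Enzyme at 150 ng/mL in 100 mM Tris-HCl pH 7.5/0.01% BSA was mixed with compound (0.14–100 nM, seven points), 120 μM sepiapterin and 160 μM NADPH, both as added-solution concentrations. After 240 min at room temperature, remaining sepiapterin was read at 420 nm to give percent inhibition.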
For the molecule `CC(C)Cn1c(=O)c(C(=O)NC2CC2)c(O)n2ncc(CNC(=O)C3CCOCC3)c12` [Synthesis Example 262, N-Cyclopropyl-7-hydroxy-4-isobutyl-5-oxo-3-((tetrahydro-2H-pyran-4-carboxamido)methyl)-4,5-dihydropyrazolo[1,5-a]pyrimidine-6-carboxamide], the IC50 was 1.01 nM.

On to `Cc1nn2c(O)c(C(=O)NC3CC3)c(=O)n(CC(C)C)c2c1/C=C/C(=O)N1CCC[C@@H]1c1ccccc1` [Synthesis Example 673, (R,E)-N-Cyclopropyl-7-hydroxy-4-isobutyl-2-methyl-5-oxo-3-(3-oxo-3-(2-phenylpyrrolidin-1-yl)prop-1-en-1-yl)-4,5-dihydropyrazolo[1,5-a]pyrimidine-6-carboxamide], for which the IC50 stood at 1.35 nM.

With `CC(C)Cn1c(=O)c(C(=O)NC2CC2)c(O)n2ncc(/C=C/C(=O)N3C[C@@H]4C[C@H]3CO4)c12` [compound 539, 3-((E)-3-((1S,4S)-2-Oxa-5-azabicyclo[2.2.1]heptan-5-yl)-3-oxoprop-1-en-1-yl)-N-cyclopropyl-7-hydroxy-4-isobutyl-5-oxo-4,5-dihydropyrazolo[1,5-a]pyrimidine-6-carboxamide], the IC50 came out at 0.64 nM.

For `CC(=O)N1CCCC2(CCCN2C(=O)/C=C/c2c(C)nn3c(O)c(C(=O)NC4CC4)c(=O)n(CC(C)C)c23)C1` (stereo not drawn) [Synthesis Example 663, (E)-3-(3-(7-Acetyl-1,7-diazaspiro[4.5]decan-1-yl)-3-oxoprop-1-en-1-yl)-N-cyclopropyl-7-hydroxy-4-isobutyl-2-methyl-5-oxo-4,5-dihydropyrazolo[1,5-a]pyrimidine-6-carboxamide], the IC50 was determined as 1.41 nM.

For the molecule `CC(C)Cn1c(=O)c(C(=O)NC2CC2)c(O)n2ncc(/C=C/C(=O)N3CC(F)C3)c12` [compound 554, (E)-N-Cyclopropyl-3-(3-(3-fluoroazetidin-1-yl)-3-oxoprop-1-en-1-yl)-7-hydroxy-4-isobutyl-5-oxo-4,5-dihydropyrazolo[1,5-a]pyrimidine-6-carboxamide], the IC50 was found to be 0.77 nM.

For `Cc1nn2c(O)c(C(=O)NC3CC3)c(=O)n(CC(C)C)c2c1/C=C/C(=O)N1C2CCC1CC(F)(F)C2` [Synthesis Example 650, (E)-N-Cyclopropyl-3-(3-(3,3-difluoro-8-azabicyclo[3.2.1]octan-8-yl)-3-oxoprop-1-en-1-yl)-7-hydroxy-4-isobutyl-2-methyl-5-oxo-4,5-dihydropyrazolo[1,5-a]pyrimidine-6-carboxamide], the IC50 was 0.95 nM.

`CC(C)Cn1c(=O)c(C(=O)NC2CC2)c(O)n2ncc(/C=C/C(=O)N3C[C@H]4C[C@@H]3CO4)c12` [compound 538, 3-((E)-3-((1R,4R)-2-Oxa-5-azabicyclo[2.2.1]heptan-5-yl)-3-oxoprop-1-en-1-yl)-N-cyclopropyl-7-hydroxy-4-isobutyl-5-oxo-4,5-dihydropyrazolo[1,5-a]pyrimidine-6-carboxamide]: the IC50 came to 0.69 nM.

For `O=C(NC1CC1)c1c(O)n2ncc(/C=C/C(=O)N3CCOCC3)c2n(CC2CCC2)c1=O` [Synthesis Example 381, (E)-4-(Cyclobutylmethyl)-N-cyclopropyl-7-hydroxy-3-(3-morpholino-3-oxoprop-1-en-1-yl)-5-oxo-4,5-dihydropyrazolo[1,5-a]pyrimidine-6-carboxamide], the IC50 was determined as 0.71 nM.

Regarding `COC[C@H]1COCCN1C(=O)/C=C/c1cnn2c(O)c(C(=O)NC3CC3)c(=O)n(CC(C)C)c12` [compound 531, (S,E)-N-Cyclopropyl-7-hydroxy-4-isobutyl-3-(3-(3-(methoxymethyl)morpholino)-3-oxoprop-1-en-1-yl)-5-oxo-4,5-dihydropyrazolo[1,5-a]pyrimidine-6-carboxamide], the IC50 turned out to be 0.73 nM.

As for `CC(C)Cn1c(=O)c(C(=O)NC2CC2)c(O)n2nc(O)cc12` [Synthesis Example 318, N-Cyclopropyl-2,7-dihydroxy-4-isobutyl-5-oxo-4,5-dihydropyrazolo[1,5-a]pyrimidine-6-carboxamide], the IC50 turned out to be 1.43 nM.

As for `COC(C)(C)Cn1c(=O)c(C(=O)NC2CC2)c(O)n2nc(-c3cccnc3N)cc12` [Synthesis Example 271, 2-(2-Aminopyridin-3-yl)-N-cyclopropyl-7-hydroxy-4-(2-methoxy-2-methylpropyl)-5-oxo-4,5-dihydropyrazolo[1,5-a]pyrimidine-6-carboxamide], the IC50 amounted to 1.08 nM.

On to `CC(C)Cn1c(=O)c(C(=O)NC2CC2)c(O)n2ncc(/C=C/C(=O)N3CCC(C(C)(C)O)CC3)c12` [compound 474, (E)-N-Cyclopropyl-7-hydroxy-3-(3-(4-(2-hydroxypropan-2-yl)piperidin-1-yl)-3-oxoprop-1-en-1-yl)-4-isobutyl-5-oxo-4,5-dihydropyrazolo[1,5-a]pyrimidine-6-carboxamide], for which the IC50 came to 0.88 nM.

Regarding `CO[C@@H]1CCN(C(=O)/C=C/c2c(C)nn3c(O)c(C(=O)NC4CC4)c(=O)n(CC(C)C)c23)C1` [compound 578, (R,E)-N-Cyclopropyl-7-hydroxy-4-isobutyl-3-(3-(3-methoxypyrrolidin-1-yl)-3-oxoprop-1-en-1-yl)-2-methyl-5-oxo-4,5-dihydropyrazolo[1,5-a]pyrimidine-6-carboxamide], the IC50 was 0.9 nM.

Consider `CC(C)Cn1c(=O)c(C(=O)NC2CC2)c(O)n2nc(C(N)=O)c(/C=C/C(=O)N3CCOCC3)c12` [compound 450, (E)-N6-Cyclopropyl-7-hydroxy-4-isobutyl-3-(3-morpholino-3-oxoprop-1-en-1-yl)-5-oxo-4,5-dihydropyrazolo[1,5-a]pyrimidine-2,6-dicarboxamide], for which the IC50 was determined as 0.6 nM.

For the molecule `Cc1nn2c(O)c(C(=O)NC3CC3)c(=O)n(CC(C)C)c2c1/C=C/C(=O)N1CCOC(C)(C)C1` [Synthesis Example 657, (E)-N-Cyclopropyl-3-(3-(2,2-dimethylmorpholino)-3-oxoprop-1-en-1-yl)-7-hydroxy-4-isobutyl-2-methyl-5-oxo-4,5-dihydropyrazolo[1,5-a]pyrimidine-6-carboxamide], the IC50 amounted to 0.92 nM.

In the case of `Cc1nn2c(O)c(C(=O)NC3CC3)c(=O)n(CC(C)C)c2c1/C=C/C(=O)N1CCN(C2CC(F)(F)C2)C[C@@H]1C` [Synthesis Example 671, (S,E)-N-Cyclopropyl-3-(3-(4-(3,3-difluorocyclobutyl)-2-methylpiperazin-1-yl)-3-oxoprop-1-en-1-yl)-7-hydroxy-4-isobutyl-2-methyl-5-oxo-4,5-dihydropyrazolo[1,5-a]pyrimidine-6-carboxamide], the IC50 amounted to 1.49 nM.

For the molecule `CC(C)Cn1c(=O)c(C(=O)NC2CC2)c(O)n2ncc(C(=O)NCc3ccc(C#N)cc3)c12` [Synthesis Example 232, N3-(4-Cyanobenzyl)-N6-cyclopropyl-7-hydroxy-4-isobutyl-5-oxo-4,5-dihydropyrazolo[1,5-a]pyrimidine-3,6-dicarboxamide], the IC50 worked out at 1.25 nM.

In the case of `Cc1nn2c(O)c(C(=O)NC3CC3)c(=O)n(CC(C)(C)C)c2c1/C=C/C(=O)N1CCC(F)(F)C1` [Synthesis Example 627, (E)-N-Cyclopropyl-3-(3-(3,3-difluoropyrrolidin-1-yl)-3-oxoprop-1-en-1-yl)-7-hydroxy-2-methyl-4-neopentyl-5-oxo-4,5-dihydropyrazolo[1,5-a]pyrimidine-6-carboxamide], the IC50 was determined as 0.94 nM.

Regarding `Cc1nn2c(O)c(C(=O)NC3CC3)c(=O)n(CC(C)C)c2c1/C=C/C(=O)N1C[C@@H](C)OC[C@@H]1C` [Synthesis Example 647, N-Cyclopropyl-3-((E)-3-((2R,5S)-2,5-dimethylmorpholino)-3-oxoprop-1-en-1-yl)-7-hydroxy-4-isobutyl-2-methyl-5-oxo-4,5-dihydropyrazolo[1,5-a]pyrimidine-6-carboxamide], the IC50 was determined as 0.81 nM.

`CNc1nn2c(O)c(C(=O)NC3CC3)c(=O)n(CC(C)C)c2c1/C=C/C(=O)N1CCCC1` [Synthesis Example 427, (E)-N-Cyclopropyl-7-hydroxy-4-isobutyl-2-(methylamino)-5-oxo-3-(3-oxo-3-(pyrrolidin-1-yl)prop-1-en-1-yl)-4,5-dihydropyrazolo[1,5-a]pyrimidine-6-carboxamide]: the IC50 is 0.95 nM.

On to `CCN1CCC2(CCCN2C(=O)/C=C/c2c(C)nn3c(O)c(C(=O)NC4CC4)c(=O)n(CC(C)C)c23)CC1` [Synthesis Example 667, (E)-N-Cyclopropyl-3-(3-(8-ethyl-1,8-diazaspiro[4.5]decan-1-yl)-3-oxoprop-1-en-1-yl)-7-hydroxy-4-isobutyl-2-methyl-5-oxo-4,5-dihydropyrazolo[1,5-a]pyrimidine-6-carboxamide], for which the IC50 was 0.94 nM.

In the case of `CC1(Cn2c(=O)c(C(=O)NC3CC3)c(O)n3ncc(/C=C/C(=O)N4C5CCC4COC5)c23)CC1` [Synthesis Example 367, (E)-3-(3-(3-Oxa-8-azabicyclo[3.2.1]octan-8-yl)-3-oxoprop-1-en-1-yl)-N-cyclopropyl-7-hydroxy-4-((1-methylcyclopropyl)methyl)-5-oxo-4,5-dihydropyrazolo[1,5-a]pyrimidine-6-carboxamide], the IC50 was 0.62 nM.

For `Cc1nn2c(O)c(C(=O)NC3CC3)c(=O)n(CC(C)C)c2c1/C=C/C(=O)N1CCCC12CCCN(C(=O)OC(C)(C)C)C2` (stereo not drawn) [Synthesis Example 660, Tert-butyl (E)-1-(3-(6-(cyclopropylcarbamoyl)-7-hydroxy-4-isobutyl-2-methyl-5-oxo-4,5-dihydropyrazolo[1,5-a]pyrimidin-3-yl)acryloyl)-1,7-diazaspiro[4.5]decane-7-carboxylate], the IC50 came to 3.97 nM.

The same assay, now with this note: sepiapterin absorbance, Table 41, read-out: concentration at 50% inhibition of human SPR (IC50).
As for `CC[C@H]1COCCN1C(=O)/C=C/c1c(C)nn2c(O)c(C(=O)NC3CC3)c(=O)n(CC(C)(C)C)c12` [Synthesis Example 691, (S,E)-N-Cyclopropyl-3-(3-(3-ethylmorpholino)-3-oxoprop-1-en-1-yl)-7-hydroxy-2-methyl-4-neopentyl-5-oxo-4,5-dihydropyrazolo[1,5-a]pyrimidine-6-carboxamide], the IC50 worked out at 0.82 nM.

The record behind these values is patent US20240092784A1, “CONDENSED HETEROCYCLIC COMPOUND” (NISSAN CHEMICAL CORPORATION, priority 2020, published 2024).
